Patent US20100173835A1, “Peptides for Treatment of Obesity” (Novo Nordisk A/S, priority 2008, published 2010)
pKi: −log10 of the molar value. In brackets after ≈: the same amount, converted by molar mass. Where two headings read alike, the source gives them in different places. Where a SMILES comes first, the peptide text is derived from it. Bridges are numbered along the chain shown (N, C = ends). [ ]: non-standard residue; d: D form. The star is where a group is joined. Palmitoyl(16-(5-tetrazolyl)) = O=C(CCCCCCCCCCCCCCCc1nnn[nH]1)*; Lys(CH2CO2H)2 = N[C@@H](CCCCN(CC(=O)O)CC(=O)O)C(=O)O; Hyp = O=C(O)[C@@H]1C[C@@H](O)CN1; Nle = CCCC[C@H](N)C(=O)O; AEEA = NCCOCCOCC(=O)O; βAla = NCCC(=O)O

Legend:
[1] = Solubility data of compounds in water over the pH range; assay type: physicochemical; settings: read-out: Conc (solubility in water)
[2] = test system: ad libitum fed rat model; assay: Assay (I) efficacy testing on appetite, ad libitum fed rat model; assay type: in vivo; settings: dosing 1 mg/kg, 1 mg/kg
Description: Assay (I)—Experimental protocol for efficacy testing on appetite with MC4 analogues, using an ad libitum fed rat model. TAC:SPRD @mol rats or Wistar rats from M&B Breeding and Research Centre A/S, Denmark are used for the experiments. The rats have a body weight 200-250 g at the start of experiment. The rats arrive at least 10-14 days before start of experiment with a body weight of 180-200 g. Each dose of compound is tested in a group of 8 rats. […] When the animals arrive they are housed individually in a reversed light/dark phase (lights off 7:30 am, lights on 7:30 pm), meaning that lights are off during daytime and on during nighttime. […] During this period the animals are handled at least 3 times. The experiment is conducted in the rats' home cages. Immediately before dosing the rats are randomised to the various treatment groups (n 8) by body weight. They are dosed according to body weight at between 7:00 am and 7:45 am, with a 1-3 mg/kg solution administered intraperitoneally (ip), orally (po) or subcutaneously (sc). The time of dosing is recorded for each group. After dosing, the rats are returned to their home cages, where they then have access to food and water. […] At the end of the experimental session, the animals are euthanised. The individual data are recorded in Microsoft excel sheets. Outliers are excluded after applying the Grubbs statistical evaluation test for outliers, and the result is presented graphically using the GraphPad Prism program.

[3] = molecular target: T1, human MC4 receptor (Homo sapiens, UniProt P32245); assay: Assay (V) Melanocortin Receptor 4 (MC4) binding assay; settings: Assay (V) MC4 [Ki] (nM), 125NDP-α-MSH binding, BHK cell membranes
T1 construct: expressed in transfected cells
T1 sequence (P32245 whole entry): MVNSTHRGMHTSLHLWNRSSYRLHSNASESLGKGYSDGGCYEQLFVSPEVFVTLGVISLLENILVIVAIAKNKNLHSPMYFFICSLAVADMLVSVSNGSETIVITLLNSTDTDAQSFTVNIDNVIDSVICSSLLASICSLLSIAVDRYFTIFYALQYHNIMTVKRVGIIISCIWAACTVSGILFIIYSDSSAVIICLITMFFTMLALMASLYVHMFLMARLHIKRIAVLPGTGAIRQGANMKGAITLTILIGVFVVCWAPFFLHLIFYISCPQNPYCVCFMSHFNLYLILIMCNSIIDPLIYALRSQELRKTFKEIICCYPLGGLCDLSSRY
In short: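 BHK membranes stably expressing human MC4 receptor were incubated with ^125NDP-α-MSH (≈79 pM final) and compound for 2 h at 25 °C, pH 7.0 HEPES buffer with HSA or ovalbumin. Filter-bound radioactivity was gamma counted. Binding curves were fitted by non-linear regression.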

[4] = molecular target: T2, MC1 receptor (Homo sapiens, UniProt Q01726); assay: Assay (IV) Melanocortin Receptor 1 (MC1) binding assay
T2 construct: expressed in transfected cells
T2 sequence (Q01726 whole entry): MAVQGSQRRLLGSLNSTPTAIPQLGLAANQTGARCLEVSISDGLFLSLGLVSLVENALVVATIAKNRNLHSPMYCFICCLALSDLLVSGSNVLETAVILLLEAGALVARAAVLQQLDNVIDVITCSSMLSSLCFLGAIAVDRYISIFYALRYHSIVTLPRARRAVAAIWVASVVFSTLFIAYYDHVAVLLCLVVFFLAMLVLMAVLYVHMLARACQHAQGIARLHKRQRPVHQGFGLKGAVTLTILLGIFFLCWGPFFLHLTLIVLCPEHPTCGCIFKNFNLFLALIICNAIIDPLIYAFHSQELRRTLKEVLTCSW
In short: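 Competition binding used BHK cell membranes stably expressing MC1 (25 μg/ml) with 22 pM final ^125NDP-α-MSH in 25 mM HEPES pH 7.4, CaCl2, MgSO4, EDTA, 0.1% HSA (or ovalbumin), 0.005% Tween 20. After 90 min at 30° C., bound radioligand was filtered and counted, with binding curves fitted by non-linear regression.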

Question: For `CCCC[C@H](NC(=O)[C@H](CCCCN(CC(=O)O)CC(=O)O)NC(=O)CCNC(=O)[C@H](Cc1c[nH]cn1)NC(=O)[C@H](CCC(N)=O)NC(=O)[C@H](CO)NC(=O)[C@H](CO)NC(=O)[C@H](CCC(N)=O)NC(=O)[C@@H](CO)NC(=O)CNC(=O)COCCOCCNC(=O)COCCOCCNC(=O)CCCCCCCCCCCCCCCc1nnn[nH]1)C(=O)N[C@H]1CCC(=O)NCCCC[C@@H](C(N)=O)NC(=O)[C@H](Cc2c[nH]c3ccccc23)NC(=O)[C@H](CCCNC(=N)N)NC(=O)[C@@H](Cc2ccccc2)NC(=O)[C@@H]2C[C@@H](O)CN2C1=O` [Example 20, (2-{2-[2-(2-{2-[16-(Tetrazol-5-yl)hexadecanoylamino]ethoxy}ethoxy)acetylamino]ethoxy}ethoxy)acetyl-Gly-D-Ser-Gln-Ser-Ser-Gln-His-β-Ala-Lys(biscarboxymethyl)-Nle-c[Glu-Hyp-D-Phe-Arg-Trp-Lys]-NH2] ({Palmitoyl(16-(5-tetrazolyl))-AEEA-AEEA}-G[dS]QSSQH[βAla][Lys(CH2CO2H)2][Nle]E[Hyp][dF]RWK-NH2; lactam 11-16), which solubility at 3 days ([1]; pH 2.94, pH 2.94) is on record?
Answer: 499 µM (≈ 1300 µg/mL)

Question: What about the solubility at 3 days ([1]; pH 4.37, pH 4.37) of the same compound?
Answer: 512 µM (≈ 1330 µg/mL)

Question: What about the solubility at 3 days ([1]; pH 4.97, pH 4.97) of the same compound?
Answer: 406 µM (≈ 1050 µg/mL)

Question: And the solubility at 3 days ([1]; pH 5.4, pH 5.40)?
Answer: 67 µM (≈ 174 µg/mL)

Question: What about the solubility at 3 days ([1]; pH 5.51, pH 5.51) of the same compound?
Answer: 56 µM (≈ 145 µg/mL)

Question: And the solubility at 3 days ([1]; pH 6.23, pH 6.23)?
Answer: 53 µM (≈ 138 µg/mL)

Question: What about the solubility at 3 days ([1]; pH 6.91, pH 6.91) of the same compound?
Answer: 223 µM (≈ 579 µg/mL)

Question: And the solubility at 3 days ([1]; pH 6.99)?
Answer: 345 µM (≈ 896 µg/mL)

Question: What about the solubility at 3 days ([1]; pH 7.23, pH 7.23) of the same compound?
Answer: 473 µM (≈ 1230 µg/mL)

Question: And the solubility at 3 days ([1]; pH 7.55, pH 7.55)?
Answer: 452 µM (≈ 1170 µg/mL)

Question: What about the “Food consumption (% of vehicle) 24 h” value ([2]; 24 h) of the same compound?
Answer: 61 % of vehicle

Question: And the “Food consumption (% of vehicle) 48 h” value ([2]; 48 h)?
Answer: 72 % of vehicle

Question: And the Ki [3]?
Answer: 4.55 nM

Question: What about the pKi [4] of the same compound?
Answer: < 5.00
